Measured values from US20240285501A1, “HAIR GROWTH AGENT” (ADJUVANT HOLDINGS CO., LTD., priority 2021, published 2024).

Experiments:
[1] = tested on: VEGF gene expression in human dermal papilla cells; assay: Evaluation of human dermal papilla cell VEGF gene expression (real-time PCR); assay type: cell-based; conditions: 72 hours, relative to negative control group, GAPDH internal standard, FIG. 1
Method: The VEGF gene is expressed in dermal papilla cells, and contributes to expression of such effects as increase in hair shaft diameter and improving maximum hair shaft length and improving hair shaft elongation rate and hair shaft growth promotion at head hair, beard, eyebrows, and/or eyelashes. Human dermal papilla cells were therefore used, and evaluation was carried out with respect to increase in VEGF gene expression for the respective components.
Human dermal papilla cells (Catalog No. CA60205a; derived from person; Toyobo Co., Ltd. (Japan)) were purchased, testing and evaluation being carried out with maintenance and culture of cells being performed as described in the protocol.
As drugs for testing, drug solutions of the following respective concentrations (final concentrations) were prepared and used. • Comparative Example 1: 100 μM adenosine • Working Example 1: 0.3125 μM phytosphingosine • Working Example 2: 1.25 μM phytosphingosine • Working Example 3: Liquid mixture of 100 μM adenosine and 1.25 μM phytosphingosine
A 24-well plate was seeded with human dermal papilla cells so as to obtain 6×10^3 thereof per well. […] The GAPDH gene was used as an internal standard, the amount of VEGF gene expression being calculated relative to the negative control group. […]
300 μL of lysis buffer RL was added thereto per well, and the cells were lysed by pipetting. […] Concentration of the recovered RNA was measured using a NanoDrop Lite (Catalog No. ND-LITE; Thermo Fisher Scientific K.K.), and this was stored at −80° C. until the following cDNA creation procedure.
A FastGene scriptase II cDNA synthesis 5× Ready Mix (Catalog No. NE-LS64; Nippon Genetics Co., Ltd. (Japan)) was used to synthesize cDNA. Dilution with RNase Free Water was carried out so as to cause concentration of total RNA produced in a new tube to be […], 4 μL of FastGene scriptase II cDNA synthesis 5× Ready Mix was added to 16 μL of this sample solution, and this was agitated by vortexing. […]

[2] = tested on: vascular endothelial growth factor (VEGF) expression in human dermal papilla cells; conditions: cited from earlier work

Row | Structure (SMILES) | change in amount of expression of the VEGF gene [1] | expression of vascular endothelial growth factor (VEGF) [2]
1 | CCCCCCCCCCCCCC[C@@H](O)[C@@H](O)[C@@H](N)CO [Working Example 1, phytosphingosine] | increase in dosage-dependent fashion in the amount of expression of the VEGF gene as compared with the control group | –
2 | CCCCCCCCCCCCCC[C@@H](O)[C@@H](O)[C@@H](N)CO [Working Example 2, phytosphingosine] | increase in dosage-dependent fashion in the amount of expression of the VEGF gene as compared with the control group | –
3 | Nc1ncnc2c1ncn2[C@@H]1O[C@H](CO)[C@@H](O)[C@H]1O [adenosine] | – | promotes expression of vascular endothelial growth factor (VEGF)
4 | CCCCCCCCCCCCCC[C@@H](O)[C@@H](O)[C@@H](N)CO [phytosphingosine] | significantly greater than that which was produced as a result of action of adenosine | –
